Read-outs that look alike come from different tables or passages of the source.
Assay: logP by HPLC on reversed-phase columns (C 18), EEC Directive 79/831 Annex V.A8
Type: physicochemical
Details: for chromatographic logP: reversed-phase HPLC column (C 18)
[1] = values marked [b], footnote not given
[2] = values marked [c], footnote not given
[3] = method marker [b] (compound 257: pH2.7)

Row | SMILES | logP [1] | logP [3] | other results
1 | CC(C)Nc1nc(Nc2ccc(NC(=O)C(C)(C)C)cc2)ncc1Cl [Example 188] | 1.81[b] | – | –
2 | CC(=O)Nc1ccc(Nc2ncc(Cl)c(NC(C)C)n2)cc1 [Example 189] | 1.32[b] | – | –
3 | CC(=O)Nc1ccc(Nc2ncc(Cl)c(NC(C)C)n2)cc1Cl [Example 190] | 1.61[b] | – | –
4 | CCN(C(C)=O)c1ccc(Nc2ncc(Cl)c(NC(C)C)n2)cc1 [Example 191] | 1.66[b] | – | –
5 | CC(=O)N(C)c1ccc(Nc2ncc(Cl)c(NC(C)C)n2)cc1 [Example 192] | 1.51[b] | – | –
6 | CC(C)Nc1nc(Nc2ccc(NC(=O)C(F)(F)F)cc2)ncc1Cl [Example 193] | 1.93[b] | – | –
7 | CC(C)Nc1nc(Nc2ccc(NC(=O)C3(C)CC3)cc2)ncc1Cl [Example 194] | 1.71[b] | – | –
8 | CC(=O)Nc1cccc(Nc2ncc(Cl)c(NC(C)C)n2)c1 [Example 195] | 1.39[b] | – | –
9 | C=C(C)C(=O)Nc1cccc(Nc2ncc(Cl)c(NC(C)C)n2)c1 [Example 196] | 1.66[b] | – | –
10 | CC(C)Nc1nc(Nc2cccc(NC(=O)C(C)(C)C)c2)ncc1Cl [Example 197] | 1.91[b] | – | –
11 | CC(C)Nc1nc(Nc2cccc(S(=O)(=O)N3CCCCC3)c2)ncc1Cl [Example 198] | 2.08[b] | – | –
12 | CC(=O)c1ccc(Nc2ncc(Cl)c(NC(C)C)n2)cc1 [Example 200] | 2.06[b] | – | –
13 | COC(=O)Nc1ccc(Nc2ncc(Cl)c(NC(C)C)n2)cc1 [Example 201] | 1.53[b] | – | –
14 | CCOC(=O)Nc1ccc(Nc2ncc(Cl)c(NC(C)C)n2)cc1 [Example 202] | 1.66[b] | – | –
15 | COC(=O)Nc1cccc(Nc2ncc(Cl)c(NC(C)C)n2)c1 [Example 204] | 1.59[b] | – | –
16 | CC(C)Nc1nc(Nc2ccc3[nH]c(=O)oc3c2)ncc1Cl [Example 205] | 1.44[b] | – | –
17 | CC(=O)N1CCc2ccc(Nc3ncc(Cl)c(NC(C)C)n3)cc21 [Example 206] | 1.61[b] | – | –
18 | CC(C)Nc1nc(Nc2cccc(NC(=O)C3(C)CC3)c2)ncc1Cl [Example 207] | 1.78[b] | – | –
19 | CC(C)Nc1nc(Nc2ccc(NC(=O)C(C)C)cc2)ncc1Cl [Example 209] | 1.61[b] | – | –
20 | CC(C)Nc1nc(Nc2cccc(OC(F)(F)C(F)F)c2)ncc1Cl [Example 211] | 2.88[b] | – | –
21 | CC(C)Nc1nc(Nc2ccc(SC(F)F)cc2)ncc1Cl [Example 212] | 2.88[b] | – | –

Row | SMILES | logP [1] | logP [3] | other results
22 | CC(C)Nc1nc(Nc2ccc(O)cc2)ncc1Cl [Example 213] | 1.24[b] | – | –
23 | CC(C)Nc1nc(Nc2ccc3cc[nH]c3c2)ncc1Cl [Example 215] | 1.63[b] | – | –
24 | CCOC(=O)Nc1cccc(Nc2ncc(Cl)c(NC(C)C)n2)c1 [Example 216] | 1.81[b] | – | –
25 | CSc1cccc(Nc2ncc(Cl)c(N(C)C(C)C)n2)c1 [Example 219] | – | – | logP (values marked [a], pH 2.3): 3.45[a];; logP [2]: 4.64[c]
26 | N#CCNc1nc(Nc2ccccc2)ncc1Cl [Example 220] | – | – | logP (values marked [a], pH 2.3): 1.62[a];; logP [2]: 2.2[c]
27 | CSc1cccc(Nc2ncc(Cl)c(NCC#N)n2)c1 [Example 221] | – | – | logP (values marked [a], pH 2.3): 2.27[a]
28 | COCCN(C)c1nc(Nc2ccccc2)ncc1Cl [Example 222, 5-Chloro-N^4-(2-methoxyethyl)-N^4-methyl-N^2-phenylpyrimidine-2,4-diamine] | – | – | chromatographic logP (pH 2.3, pH 2.3, 0.1% aqueous phosphoric acid and acetonitrile, read-out: logP [a]): 2.02; chromatographic logP (pH 2.3, values marked [a], pH 2.3, read-out: logP): 2.02
29 | CC(CO)Nc1nc(Nc2ccccc2)ncc1Cl (stereo not drawn) [Example 223] | – | – | logP (values marked [a], pH 2.3): 1.04[a]
30 | COCC(Nc1nc(Nc2ccccc2)ncc1Br)C(C)C (stereo not drawn) [Example 224] | 2.55[b] | – | –
31 | COCC(C)Nc1nc(Nc2cccc(C)c2)ncc1Cl (stereo not drawn) [Example 225] | 1.98[b] | – | –
32 | COCC(C)Nc1nc(Nc2ccc(N3C(=O)CN(C)C3=O)cc2)ncc1Cl (stereo not drawn) [Example 227] | 1.41[b] | – | –
33 | Cc1cccc(Nc2ncc(Cl)c(NC(C)C)n2)c1 [Example 229] | 2[b] | – | logP [2]: 3.84[c];
34 | COCC(C(C)C)N(C)c1nc(Nc2ccccc2)ncc1Br (stereo not drawn) [Example 231] | – | – | logP (values marked [a], pH 2.3): 2.47[a]
35 | CCC(COC)N(C)c1nc(Nc2ccccc2)ncc1Br (stereo not drawn) [Example 232] | – | – | logP (values marked [a], pH 2.3): 2.23[a]
36 | CC(C)CC(C)N(C)c1nc(Nc2ccccc2)ncc1Br (stereo not drawn) [Example 233] | – | – | logP (values marked [d], footnote not given): 3.39[d]
37 | CNc1nc(Nc2cccc(CC#N)c2)ncc1Cl [Example 235] | 1.1[b] | – | –
38 | CC(C)Nc1nc(Nc2cccc(CC#N)c2)ncc1Cl [Example 236] | – | – | logP [2]: 1.69[c]
39 | CCOCCN(C)c1nc(Nc2ccccc2)ncc1Br [Example 237] | 2.55[b] | – | logP [2]: 3.95[c];
40 | CCNc1nc(Nc2cccc(SC)c2)ncc1Cl [Example 238] | 1.92[b] | – | logP [2]: 3.46[c];
41 | CCN(C)c1nc(Nc2cccc(SC)c2)ncc1Cl [Example 239] | 2.99[b] | – | logP [2]: 4.32[c];
42 | CCNc1nc(Nc2ccccc2)ncc1Cl [Example 240] | 1.38[b] | – | logP [2]: 3.03[c];

Row | SMILES | logP [1] | logP [3] | other results
43 | CCN(C)c1nc(Nc2ccccc2)ncc1Cl [Example 241] | 2.11[b] | – | logP [2]: 3.85[c];
44 | CC(C)Nc1nc(Nc2cccc(CS(=O)(=O)N(C)C(C)C)c2)ncc1Cl [Example 242] | 2.18[b] | – | logP [2]: 3.44[c];
45 | CCN(C)S(=O)(=O)Cc1cccc(Nc2ncc(Cl)c(NC(C)C)n2)c1 [Example 243] | 1.96[b] | – | logP [2]: 3.18[c];
46 | COCC(C)Nc1nc(Nc2cccc(C=O)c2)ncc1Cl (stereo not drawn) [Example 244] | 1.8[b] | – | logP [2]: 2.75[c];
47 | CC(C)Nc1nc(Nc2ccc(C(=O)N(C)C)cc2)ncc1Br [Example 245] | – | 1.54[b] | –
48 | CC(C)Nc1nc(Nc2cccc(CC#N)c2)ncc1Br [Example 246] | – | 1.84[b] | logP (method marker [c]): 3.13[c];
49 | CC(C)Nc1nc(Nc2ccccc2)ncc1Br [Example 247] | – | 1.89[b] | logP (method marker [c]): 3.7[c];
50 | CC(C)Nc1nc(Nc2cccc(CS(=O)(=O)NC(C)c3ccccc3)c2)ncc1Cl (stereo not drawn) [Example 248] | – | 2.32[b] | logP (method marker [c]): 3.57[c];
51 | CC(=O)c1cccc(Nc2ncc(Cl)c(NC3CCCCC3)n2)c1.Cl [Example 249] | – | 2.53[b] | –
52 | CC(C)Nc1nc(Nc2cccc(CS(=O)(=O)N(C)C)c2)ncc1Cl [Example 250] | – | 1.69[b] | logP (method marker [c]): 2.85[c];
53 | CC(C)Nc1nc(Nc2cccc(CS(=O)(=O)NCc3ccccc3)c2)ncc1Cl [Example 251] | – | 2.18[b] | logP (method marker [c]): 3.35[c];
54 | CC(C)Nc1nc(Nc2cccc(C=O)c2)ncc1Cl [Example 252] | – | 1.86[b] | logP (method marker [c]): 3.06[c];
55 | Brc1cnc(Nc2ccccc2)nc1NC1CCCC1 [Example 253] | – | 2.47[b] | –
56 | Clc1cnc(Nc2ccccc2)nc1NC1CCCC1 [Example 254] | – | 2.28[b] | –
57 | CC(=O)Cc1cccc(Nc2ncc(Cl)c(NC3CCCC3)n2)c1 [Example 255] | – | 2.01[b] | –
58 | CSc1cccc(Nc2ncc(Cl)c(NC3CCCC3)n2)c1 [Example 256] | – | 2.93[b] | –
59 | CC(C)c1cccc(Nc2ncc(C(F)(F)F)c(NC3CCCC3)n2)c1 [Example 257, N^4-Cyclopentyl-N^2-[3-(propan-2-yl)phenyl]-5-(trifluoromethyl)pyrimidine-2,4-diamine] | – | – | chromatographic logP (pH 2.7, LC-MS, pH 2.7, 0.1% aqueous formic acid and acetonitrile, read-out: logP [b]): 5.08; chromatographic logP (pH 2.7, method marker [b] (compound 257: pH2.7), read-out: logP): 5.08
60 | Clc1cccc(Nc2ncc(Cl)c(NC3CCCCC3)n2)c1 [Example 258] | – | 3.81[b] | –
61 | Clc1cnc(Nc2ccccc2)nc1NC1CCCCC1 [Example 259] | – | 2.53[b] | –
62 | COc1cc(Nc2ncc(Cl)c(NC3CCCCC3)n2)cc(OC)c1 [Example 260] | – | 2.77[b] | –
63 | COc1cc(Nc2ncc(Cl)c(NC3CCCCC3)n2)cc(OC)c1OC [Example 261] | – | 2.26[b] | –

Row | SMILES | logP [1] | logP [3] | other results
64 | CC(=O)c1cccc(Nc2ncc(Cl)c(NC3CCCCC3)n2)c1 [Example 262] | – | – | logP (method marker [a]): 2.53[a]
65 | CN(C)S(=O)(=O)c1ccc(Nc2ncc(Cl)c(NC3CCCCC3)n2)cc1 [Example 263] | – | 3.18[b] | –
66 | CC(C)(C)OC(=O)N1CCN(c2ccc(Nc3ncc(Cl)c(NC4CCCCC4)n3)cc2)CC1 [Example 264] | – | 2.95[b] | –
67 | CCN(CC)c1ccc(Nc2ncc(Cl)c(NC3CCCCC3)n2)cc1 [Example 265] | – | – | logP (method marker [a]): 1.69[a]
68 | CC(=O)c1ccc(Nc2ncc(Cl)c(NC3CCCCC3)n2)cc1 [Example 266] | – | – | logP (method marker [a]): 2.77[a]
69 | CS(=O)(=O)c1ccc(Nc2ncc(Cl)c(NC3CCCCC3)n2)cc1 [Example 267] | – | – | logP (method marker [a]): 2.54[a]
70 | CCN(c1nc(Nc2ccccc2)ncc1Cl)C(C)C [Example 269] | – | 3[b] | –
71 | CC(C)CN(C)c1nc(Nc2ccccc2)ncc1Cl [Example 270] | – | 3[b] | –
72 | C=CCN(C)c1nc(Nc2ccccc2)ncc1Cl [Example 271] | – | 2.66[b] | logP (method marker [c]): 4.03[c];
73 | CCCN(C)c1nc(Nc2ccccc2)ncc1Cl [Example 272] | – | 2.55[b] | logP (method marker [c]): 4.35[c];
74 | CC(C)(C)CNc1nc(Nc2ccccc2)ncc1Cl [Example 273] | – | 2.48[b] | –
75 | CCCC(C)Nc1nc(Nc2ccccc2)ncc1Cl (stereo not drawn) [Example 274] | – | 2.41[b] | –
76 | CCC(CC)Nc1nc(Nc2ccccc2)ncc1Cl [Example 275] | – | 2.34[b] | –
77 | CCC(C)CNc1nc(Nc2ccccc2)ncc1Cl (stereo not drawn) [Example 276] | – | 2.37[b] | –
78 | CC(C)CCNc1nc(Nc2ccccc2)ncc1Cl [Example 277] | – | 2.37[b] | –
79 | CCCCCNc1nc(Nc2ccccc2)ncc1Cl [Example 278] | – | 2.41[b] | –
80 | CC(C)CNc1nc(Nc2ccccc2)ncc1Cl [Example 279] | – | 2.02[b] | –
81 | CCCNc1nc(Nc2ccccc2)ncc1Cl [Example 280] | – | 1.69[b] | –
82 | CC(C)Nc1nc(Nc2cccc(C(F)F)c2)ncc1Cl [Example 281] | – | 2.4[b] | –
83 | CCCCN(C)c1nc(Nc2cccc(SC)c2)ncc1Cl [Example 282] | – | 3.9[b] | –
84 | CSc1cccc(Nc2ncc(Cl)c(NCC(C)C)n2)c1 [Example 283] | – | 2.69[b] | –
